Test results reported in patent US8273775B2, “Non-steroidal brassinosteroid mimetic” (priority 2006, dated 2012).

Test system: gene expression in Col-0 seedling shoots
Experiment: Microarray analysis (ATH1 Affymetrix) after BL or abrasin treatment
Type: in vivo, Arabidopsis
Experimental: FIG. 14: Clustering of gene expression profiles by QT-clust analysis. Clusters illustrating the major patterns of the data sets. Points: BIK-30: 30 μM abrasin 30 min; BL-30: 1 μM brassinolide 30 min; DMSO-30: control DMSO 30 min; BIK-120: 30 μM abrasin 120 min; BL-120: 1 μM brassinolide 120 min; DMSO-120: control DMSO 120 min.
Col-0 seeds were germinated vertically on ½ MS medium for 7 days under 16 h light/8 h dark cycles. The seedlings were overlaid with liquid ½ MS medium containing 1 μM brassinolide (BL, Fuji Chemical Industries, Ltd., Toyama, Japan), 30 μM abrasin (BIK, ChemBridge Corporation) and DMSO and treated for 30 and 120 min. The shoot parts were collected for RNA isolation. All sampling points were performed in three independent experiments. RNA was extracted using RNeasy kit (Qiagene). […] total RNA per array was used to hybridise the ATH1 Affymetrix Arabidopsis arrays according to standard procedure. The overrepresentation analyses were performed using BiNGO software (Maere et al., 2005).
We performed a microarray analysis using the Arabidopsis whole genome chip (Affymetix) to determine whether abrasin activated the expression of BR-inducible genes at transcriptional level. Wild-type Col-0 seedlings were exposed to 1 μM BL, 30 μM ABRASIN and DMSO (mock-treatment) for two time points (30 min and 120 min) and the shoot parts were collected for RNA isolation. The analysis of the variance of the normalized gene expression data took in account the variability parameters affecting the expression level: type of hormone treatment, duration of treatment and the interaction between these two.

CC(C)[C@H](C)[C@@H](O)[C@H](O)[C@@H](C)[C@H]1CC[C@H]2[C@@H]3COC(=O)[C@H]4C[C@H](O)[C@H](O)C[C@]4(C)[C@H]3CC[C@]12C [BL, brassinolide, reference compound]
Fold-change of gene AT2G42380 (bZIP transcription factor family protein) (30 min, 265877_at, Cluster 6): 0.81
Fold-change of gene AT2G45080 (cyclin family protein) (30 min, 266124_at, Cluster 8): 0.84
Fold-change AT1G04330 expressed protein (120 min): 1.30
Fold-change AT1G05470 endonuclease/exonuclease/phosphatase family protein (120 min): 1.05
Fold-change AT1G06520 Encodes a membrane associated mitochondrial localized protein (120 min): 3.11
Fold-change AT1G06570 4-hydroxyphenylpyruvate dioxygenase (HPD) (120 min): 0.27
Fold-change AT1G10550 xyloglucan:xyloglucosyl transferase (120 min): 2.19
Fold-change AT1G12710 F-box family protein (120 min): 2.11
Fold-change AT1G12750 rhomboid family protein (120 min): 0.78
Fold-change AT1G14130 2-oxoglutarate-dependent dioxygenase (120 min): 1.31
Fold-change AT1G14700 purple acid phosphatase (120 min): 0.59
Fold-change AT1G16640 transcriptional factor B3 family protein (120 min): 0.95
Fold-change AT1G17230 leucine-rich repeat family protein (120 min): 0.38
Fold-change AT1G18020; AT1G17990 [AT1G18020, 12-oxophytodienoate reductase, (120 min): 0.50
Fold-change AT1G19320 pathogenesis-related thaumatin family protein (120 min): 0.38
Fold-change AT1G20350 mitochondrial import inner membrane translocase subunit (120 min): 1.08
Fold-change AT1G21050 expressed protein (120 min): 0.22
Fold-change AT1G21760 F-box family protein (120 min): 0.60
Fold-change AT1G22360 UDP-glucoronosyl/UDP-glucosyl transferase family protein (120 min): 0.29
Fold-change AT1G23080 auxin efflux carrier protein (PIN7) (120 min): 0.48
Fold-change AT1G26800 zinc finger (C3HC4-type RING finger) family protein, (120 min): 6.09
Fold-change AT1G27730 zinc finger (C2H2 type) family protein (120 min): 0.71
Fold-change AT1G28130 encodes an IAA-amido synthase (120 min): 0.28
Fold-change AT1G28190 expressed protein (120 min): 0.58
Fold-change AT1G28480 glutaredoxin family protein (120 min): 1.38
Fold-change AT1G31040 zinc-binding protein-related (120 min): 1.12
Fold-change AT1G31310 hydroxyproline-rich glycoprotein family protein (120 min): 0.74
Fold-change AT1G31770 ABC transporter family protein (120 min): 0.64
Fold-change AT1G32190 expressed protein (120 min): 0.11
Fold-change AT1G32690 expressed protein (120 min): 0.48
Fold-change AT1G36940 expressed protein (120 min): 0.38
Fold-change AT1G49780 U-box domain-containing protein (120 min): 0.28
Fold-change AT1G53870; AT1G53890 [AT1G53870, expressed protein (120 min): 0.77
Fold-change AT1G54050 17.4 kDa class III heat shock protein (HSP17.4-CIII) (120 min): 3.58
Fold-change AT1G54200 expressed protein (120 min): 2.06
Fold-change AT1G55920 serine O-acetyltransferase (120 min): 1.01
Fold-change AT1G57560 myb family transcription factor (MYB50) (120 min): 2.45
Fold-change AT1G59590 expressed protein (120 min): 1.03
Fold-change AT1G59660 nucleoporin family proteinmily (120 min): 3.15
Fold-change AT1G62300 WRKY family transcription factor (120 min): 0.21
Fold-change AT1G63050 membrane bound O-acyl transferase (MBOAT) family protein (120 min): 0.40
Fold-change AT1G66160 U-box domain-containing protein, (120 min): 1.22
Fold-change AT1G66890 expressed protein (120 min): 0.34
Fold-change AT1G68330 expressed protein (120 min): 1.74
Fold-change AT1G68810 basic helix-loop-helix (bHLH) family protein (120 min): 0.83
Fold-change AT1G69160 expressed protein (120 min): 0.59
Fold-change AT1G70990 proline-rich family protein (120 min): 2.22
Fold-change AT1G71030 Encodes a putative myb family transcription factor (120 min): 0.13
Fold-change AT1G72060 expressed protein (120 min): 0.92
Fold-change AT1G72180 leucine-rich repeat transmembrane protein kinase (120 min): 0.22
Fold-change AT1G72800 nuM1-related, contains (120 min): 2.85
Fold-change AT1G75270 dehydroascorbate reductase (120 min): 1.66
Fold-change AT1G75500 nodulin MtN21 family protein (120 min): 0.56
Fold-change AT1G76240 expressed protein, (120 min): 0.16
Fold-change AT1G76410 zinc finger (C3HC4-type RING finger) (120 min): 0.43
Fold-change AT1G79110 expressed protein (120 min): 0.77
Fold-change AT1G79630 protein phosphatase 2C family protein (120 min): 0.37
Fold-change AT1G80440 kelch repeat-containing F-box family protein (120 min): 2.93
Fold-change AT2G01300 expressed protein (120 min): 4.83
Fold-change AT2G01990 expressed protein, (120 min): 1.06
Fold-change AT2G04240 zinc finger (C3HC4-type RING finger) family protein (120 min): 2.81
Fold-change AT2G05540 glycine-rich protein (120 min): 0.46
Fold-change AT2G12290; AT4G19700 [AT2G12290, expressed protein]; [AT4G19700, expressed protein] (120 min): 0.55
Fold-change AT2G18010 auxin-responsive family protein (SAUR10) (120 min): 9.13
Fold-change AT2G19800 expressed protein (120 min): 1.78
Fold-change AT2G22860 phytosulfokines 2 (PSK2) (120 min): 0.44
Fold-change AT2G23180 cytochrome P450, putative (120 min): 0.42
Fold-change AT2G23320 WRKY family transcription factor (120 min): 0.50
Fold-change AT2G26530 expressed protein (120 min): 0.86
Fold-change AT2G26710 cytochrome p450 family (BAS1) (120 min): 5.42
Fold-change AT2G28510 Dof-type zinc finger domain-containing protein (120 min): 0.51
Fold-change AT2G29340 short-chain dehydrogenase/reductase (SDR) family protein (120 min): 1.29
Fold-change AT2G29990 pyridine nucleotide-disulphide oxidoreductase family protein (120 min): 0.48
Fold-change AT2G30070 potassium transporter (KUP1) (120 min): 0.38
Fold-change AT2G31230 encodes a member of the ERF (ethylene response factor) (120 min): 2.74
Fold-change AT2G34650 protein kinase PINOID (PID) (120 min): 3.26
Fold-change AT2G36220 expressed protein (120 min): 2.62
Fold-change AT2G37590 Dof-type zinc finger domain-containing protein (120 min): 1.19
Fold-change AT2G38470 WRKY family transcription factor (120 min): 0.57
Fold-change AT2G39710 aspartyl protease family protein (120 min): 1.00
Fold-change AT2G40340; AT2G40350 [AT2G40340, encodes a member of the DREB subfamily A-2 of ERF/AP2 (120 min): 1.68
Fold-change AT2G41250 haloacid dehalogenase-like hydrolase family protein (120 min): 0.44
Fold-change AT2G41640 expressed protein (120 min): 1.43
Fold-change AT2G42280 basic helix-loop-helix (bHLH) family protein (120 min): 0.41
Fold-change AT2G43060 expressed protein, similar to cDNA bHLH transcription factor (120 min): 0.36
Fold-change AT2G43280 far-red impaired responsive family protein (120 min): 0.51
Fold-change AT2G43290 calmodulin-like protein (MSS3) (120 min): 2.99
Fold-change AT2G44130 kelch repeat-containing F-box family protein (120 min): 6.30
Fold-change AT2G44500 expressed protein (120 min): 2.06
Fold-change AT2G45210 auxin-responsive protein-related (120 min): 0.21
Fold-change AT2G45680 TCP family transcription factor (120 min): 0.82
Fold-change AT2G46225 Encodes a subunit of the WAVE complex (120 min): 0.47
Fold-change AT2G47440 DNAJ heat shock N-terminal domain-containing protein (120 min): 2.23
Fold-change AT3G04210 disease resistance protein (TIR-NBS class), putative, (120 min): 1.00
Fold-change AT3G09920 phosphatidylinositol-4-phosphate 5-kinase family protein (120 min): 0.42
Fold-change AT3G12920 expressed protein (120 min): 0.41
Fold-change AT3G13040 myb family transcription factor (120 min): 0.54
Fold-change AT3G13510 expressed protein (120 min): 0.83
Fold-change AT3G13980 expressed protein (120 min): 0.45
Fold-change AT3G14370 protein kinase family protein (120 min): 3.50
Fold-change AT3G14560 expressed protein (120 min): 0.50
Fold-change AT3G16570 rapid alkalinization factor (RALF) family protein (120 min): 0.87
Fold-change AT3G17860 expressed protein (120 min): 0.74
Fold-change AT3G18830 polyol/cyclitol/monosaccharide-H+-symporte (120 min): 1.14
Fold-change AT3G19380 U-box domain-containing protein (120 min): 0.27
Fold-change AT3G23030 auxin-responsive protein/indoleacetic acid-induced protein 2 (IAA2) (120 min): 0.39
Fold-change AT3G23550 MATE efflux family protein (120 min): 0.31
Fold-change AT3G25710 basic helix-loop-helix (bHLH) family protein (120 min): 0.53
Fold-change AT3G25900 homocysteine S-methyltransferase 1 (HMT-1) (120 min): 2.22
Fold-change AT3G26910 hydroxyproline-rich glycoprotein family protein (120 min): 0.60
Fold-change AT3G30180 cytochrome p450 enzyme (120 min): 0.07
Fold-change AT3G46880 expressed protein, (120 min): 0.60
Fold-change AT3G47800 aldose 1-epimerase family protein (120 min): 0.26
Fold-change AT3G48970 copper-binding family protein (120 min): 0.59
Fold-change AT3G49810 U-box domain-containing protein (120 min): 0.56
Fold-change AT3G50650 scarecrow-like transcription factor 7 (SCL7) (120 min): 1.82
Fold-change AT3G50660 steroid 22-alpha-hydroxylase (CYP90B1) (DWF4) (120 min): 0.02
Fold-change AT3G50750 brassinosteroid signalling positive regulator-related (BEH1) (120 min): 0.35
Fold-change AT3G52490 heat shock protein-related (120 min): 1.08
Fold-change AT3G53810 lectin protein kinase (120 min): 1.19
Fold-change AT3G54950 patatin-related, (120 min): 0.39
Fold-change AT3G55120 chalcone-flavanone isomerase (120 min): 0.68
Fold-change AT3G55150 exocyst subunit EXO70 family protein (120 min): 0.13
Fold-change AT3G55840 expressed protein (120 min): 7.41
Fold-change AT3G61460 zinc finger (C3HC4-type RING finger) family protein (BRH1) (120 min): 0.43
Fold-change AT3G63300 expressed protein (120 min): 1.13
Fold-change AT4G01680 myb family transcription factor (MYB55) (120 min): 0.14
Fold-change AT4G02410 lectin protein kinase family protein (120 min): 0.59
Fold-change AT4G08040 1-aminocyclopropane-1-carboxylate synthase, putative (120 min): 0.02
Fold-change AT4G09460 myb family transcription factor (120 min): 2.76
Fold-change AT4G12390 invertase/pectin methylesterase inhibitor family protein (120 min): 0.66
Fold-change AT4G12410 auxin-responsive family protein (120 min): 0.44
Fold-change AT4G14130 xyloglucan:xyloglucosyl transferase (120 min): 0.08
Fold-change AT4G15975 zinc finger (C3HC4-type RING finger) family protein (120 min): 1.05
Fold-change AT4G16146 expressed protein (120 min): 0.55
Fold-change AT4G16563 aspartyl protease family protein (120 min): 2.89
Fold-change AT4G16670 expressed protein (120 min): 0.35
